Measurements: patent publication US10668056B2, “Pharmaceutical composition comprising indole derivatives, process for preparation and use thereof” (VIVOLUX AB, priority 2015, dated 2020)

Key:
[1] = Stability study of lyophilised powder, 2-8° C.; type: physicochemical; conditions: for Any individual purity / Assay / RRT 1.13 (impurity) / RRT 1.23-1.24 (impurity) / RRT 1.47-1.51 (impurity) / Specified impurity* (hydrolysis impurity) / Total impurities / Water content / Z-isomer RRT 0.92-0.93 / pH: 2-8° C.
[2] = Stability study of lyophilised powder, accelerated 25° C./60% RH
Experimental: The stability study of the di-hydrochloride ethanol co-crystal precipitate and of the lyophilized di-hydrochloride salt was conducted in accordance with the International Conference on Harmonizations (ICH) guideline Q1A (R2) Stability Testing of New Drug Substances and Products. All analytical instruments used to analyze the stability samples during the study are qualified in compliance with current cGMP.
The LOQ is 0.05%, peaks <than LOQ was recorded as <0.05%.

[3] = Solubility of lyophilisate in water; type: physicochemical
Experimental: Glucose and mannitol were evaluated as excipients, both alone and in combination with NaCl. The best result regarding solubility, texture of the lyophilised cake and suppression of impurity formation was obtained with 5% (w/v) mannitol as additive.
The best result concerning formation of impurities and texture of the freeze dried cake was obtained with the freeze drying cycle described in Table 3 and the mannitol content set at 5%.

[4] = Stability of compound A2 in aqueous media; type: physicochemical
Experimental: Also, it is understood that the pH is of significance for the stability of compound A2 in aqueous media with the best stability at pH around 1-4, higher concentration of the substance results in lower pH. 1 mg/ml of said aqueous solution has a pH about 2-3.

SMILES: CC(=NNc1nnc2c(n1)[nH]c1c(C)cccc12)c1ccccn1.Cl.Cl [Compound A2]
- appearance ([1]; 2-8° C. up to 24 months): yellow to orange freeze dried cake during the whole test period
- appearance after reconstitution ([1]; 2-8° C. up to 24 months): yellow to orange solution without visible particles
- Any individual purity ([1]; 0 months): 0.4%
- Assay ([1]; 0 months): 97.8 % w/w
- RRT 1.13 (impurity) ([1]; 0 months): 0.05%
- RRT 1.23-1.24 (impurity) ([1]; 0 months): 0.06%
- RRT 1.47-1.51 (impurity) ([1]; 0 months): 0.37%
- Specified impurity* (hydrolysis impurity) ([1]; 0 months): <0.5%
- Total impurities ([1]; 0 months): 0.7%
- Water content ([1]; 0 months): 0.33%
- Z-isomer RRT 0.92-0.93 ([1]; 0 months): 0.1%
- pH ([1]; 0 months): 1.6
- Any individual purity ([1]; 1 month): 0.3%
- Assay ([1]; 1 month): 98.4 % w/w
- RRT 1.13 (impurity) ([1]; 1 month): <0.05%
- RRT 1.23-1.24 (impurity) ([1]; 1 month): 0.05%
- RRT 1.47-1.51 (impurity) ([1]; 1 month): 0.32%
- Specified impurity* (hydrolysis impurity) ([1]; 1 month): <0.05%
- Total impurities ([1]; 1 month): 0.5%
- Water content ([1]; 1 month): 0.41%
- Z-isomer RRT 0.92-0.93 ([1]; 1 month): 0.1%
- pH ([1]; 1 month): 1.6
- Any individual purity ([1]; 3 months): 0.1%
- Assay ([1]; 3 months): 95.9 % w/w
- RRT 1.13 (impurity) ([1]; 3 months): <0.05%
- RRT 1.23-1.24 (impurity) ([1]; 3 months): 0.08%
- RRT 1.47-1.51 (impurity) ([1]; 3 months): 0.05%
- Specified impurity* (hydrolysis impurity) ([1]; 3 months): <0.05%
- Total impurities ([1]; 3 months): 0.3%
- Water content ([1]; 3 months): 0.47%
- Z-isomer RRT 0.92-0.93 ([1]; 3 months): 0.1%
- pH ([1]; 3 months): 1.6
- Any individual purity ([1]; 6 months): 0.1%
- Assay ([1]; 6 months): 97.3 % w/w
- RRT 1.13 (impurity) ([1]; 6 months): <0.05%
- RRT 1.23-1.24 (impurity) ([1]; 6 months): 0.05%
- RRT 1.47-1.51 (impurity) ([1]; 6 months): <0.05%
- Specified impurity* (hydrolysis impurity) ([1]; 6 months): 0.08%
- Total impurities ([1]; 6 months): 0.4%
- Water content ([1]; 6 months): 0.37%
- Z-isomer RRT 0.92-0.93 ([1]; 6 months): 0.1%
- pH ([1]; 6 months): 1.5
- Any individual purity ([1]; 12 months): 0.1%
- Assay ([1]; 12 months): 93.9 % w/w
- RRT 1.13 (impurity) ([1]; 12 months): <0.05%
- RRT 1.23-1.24 (impurity) ([1]; 12 months): 0.06%
- RRT 1.47-1.51 (impurity) ([1]; 12 months): <0.05%
- Specified impurity* (hydrolysis impurity) ([1]; 12 months): 0.08%
- Total impurities ([1]; 12 months): 0.2%
- Water content ([1]; 12 months): 0.53%
- Z-isomer RRT 0.92-0.93 ([1]; 12 months): <0.05%
- pH ([1]; 12 months): 1.6
- Any individual purity ([1]; 18 months): 0.1%
- Assay ([1]; 18 months): 94.6 % w/w
- RRT 1.13 (impurity) ([1]; 18 months): 0.05%
- RRT 1.23-1.24 (impurity) ([1]; 18 months): 0.05%
- RRT 1.47-1.51 (impurity) ([1]; 18 months): 0.05%
- Specified impurity* (hydrolysis impurity) ([1]; 18 months): 0.10%
- Total impurities ([1]; 18 months): 0.3%
- Water content ([1]; 18 months): 0.43%
- Z-isomer RRT 0.92-0.93 ([1]; 18 months): <0.05%
- pH ([1]; 18 months): 1.6
- Any individual purity ([1]; 24 months): 0.10%
- Assay ([1]; 24 months): 94.2 % w/w
- RRT 1.13 (impurity) ([1]; 24 months): <LOQ
- RRT 1.23-1.24 (impurity) ([1]; 24 months): 0.05%
- RRT 1.47-1.51 (impurity) ([1]; 24 months): 0.10%
- Specified impurity* (hydrolysis impurity) ([1]; 24 months): 0.09%
- Total impurities ([1]; 24 months): 0.34%
- Water content ([1]; 24 months): 0.39%
- Z-isomer RRT 0.92-0.93 ([1]; 24 months): 0.05%
- pH ([1]; 24 months): 1.7
- bacterial growth / sterility ([1]; 24 months period): No bacterial growth was detected
- reconstitution time ([1]; Table 4a study): up to 3 minutes
- degradation on storage ([1]; vials crimp sealed under nitrogen, 5° C., 24 months): no degradation was seen
- bacterial growth / sterility ([2]; 24 months period in room temperature): No bacterial growth was detected
- appearance ([2]; 25° C./60% RH): yellow to orange freeze dried cake during the whole test period
- appearance after reconstitution ([2]; 25° C./60% RH): yellow to orange solution without visible particles
- reconstitution time ([2]; 25° C./60% RH): up to 3 minutes
- Any individual purity ([2]; 25° C./60% RH, 0 months): 0.4%
- Assay ([2]; 25° C./60% RH, 0 months): 97.8 % w/w
- RRT 1.13 (impurity) ([2]; 25° C./60% RH, 0 months): 0.05%
- RRT 1.23-1.24 (impurity) ([2]; 25° C./60% RH, 0 months): 0.06%
- RRT 1.47-1.51 (impurity) ([2]; 25° C./60% RH, 0 months): 0.37%
- Specified impurity* (hydrolysis impurity) ([2]; 25° C./60% RH, 0 months): <0.5%
- Total impurities ([2]; 25° C./60% RH, 0 months): 0.7%
- Water content ([2]; 25° C./60% RH, 0 months): 0.33%
- Z-isomer RRT 0.92-0.93 ([2]; 25° C./60% RH, 0 months): 0.1%
- pH ([2]; 25° C./60% RH, 0 months): 1.6
- Any individual purity ([2]; 25° C./60% RH, 1 month): 0.1%
- Assay ([2]; 25° C./60% RH, 1 month): 97.2 % w/w
- RRT 1.13 (impurity) ([2]; 25° C./60% RH, 1 month): <0.05%
- RRT 1.23-1.24 (impurity) ([2]; 25° C./60% RH, 1 month): 0.05%
- RRT 1.47-1.51 (impurity) ([2]; 25° C./60% RH, 1 month): 0.13%
- Specified impurity* (hydrolysis impurity) ([2]; 25° C./60% RH, 1 month): 0.1%
- Total impurities ([2]; 25° C./60% RH, 1 month): 0.3%
- Water content ([2]; 25° C./60% RH, 1 month): 0.39%
- Z-isomer RRT 0.92-0.93 ([2]; 25° C./60% RH, 1 month): <0.05%
- pH ([2]; 25° C./60% RH, 1 month): 1.6
- Any individual purity ([2]; 25° C./60% RH, 3 months): 0.2%
- Assay ([2]; 25° C./60% RH, 3 months): 95.4 % w/w
- RRT 1.13 (impurity) ([2]; 25° C./60% RH, 3 months): <0.05%
- RRT 1.23-1.24 (impurity) ([2]; 25° C./60% RH, 3 months): 0.08%
- RRT 1.47-1.51 (impurity) ([2]; 25° C./60% RH, 3 months): 0.05%
- Specified impurity* (hydrolysis impurity) ([2]; 25° C./60% RH, 3 months): <0.05%
- Total impurities ([2]; 25° C./60% RH, 3 months): 0.7%
- Water content ([2]; 25° C./60% RH, 3 months): 0.55%
- Z-isomer RRT 0.92-0.93 ([2]; 25° C./60% RH, 3 months): 0.1%
- pH ([2]; 25° C./60% RH, 3 months): 1.6
- Any individual purity ([2]; 25° C./60% RH, 6 months): 0.1%
- Assay ([2]; 25° C./60% RH, 6 months): 98.3 % w/w
- RRT 1.13 (impurity) ([2]; 25° C./60% RH, 6 months): <0.05%
- RRT 1.23-1.24 (impurity) ([2]; 25° C./60% RH, 6 months): 0.06%
- RRT 1.47-1.51 (impurity) ([2]; 25° C./60% RH, 6 months): <0.05%
- Specified impurity* (hydrolysis impurity) ([2]; 25° C./60% RH, 6 months): 0.08%
- Total impurities ([2]; 25° C./60% RH, 6 months): 0.4%
- Water content ([2]; 25° C./60% RH, 6 months): 0.45%
- Z-isomer RRT 0.92-0.93 ([2]; 25° C./60% RH, 6 months): 0.1%
- pH ([2]; 25° C./60% RH, 6 months): 1.5
- Any individual purity ([2]; 25° C./60% RH, 12 months): 0.1%
- Assay ([2]; 25° C./60% RH, 12 months): 94.6 % w/w
- RRT 1.13 (impurity) ([2]; 25° C./60% RH, 12 months): <0.05%
- RRT 1.23-1.24 (impurity) ([2]; 25° C./60% RH, 12 months): 0.06%
- RRT 1.47-1.51 (impurity) ([2]; 25° C./60% RH, 12 months): <0.05%
- Specified impurity* (hydrolysis impurity) ([2]; 25° C./60% RH, 12 months): 0.08%
- Total impurities ([2]; 25° C./60% RH, 12 months): 0.2%
- Water content ([2]; 25° C./60% RH, 12 months): 0.59%
- Z-isomer RRT 0.92-0.93 ([2]; 25° C./60% RH, 12 months): 0.10%
- pH ([2]; 25° C./60% RH, 12 months): 1.6
- Any individual purity ([2]; 25° C./60% RH, 18 months): 0.1%
- Assay ([2]; 25° C./60% RH, 18 months): 93.9 % w/w
- RRT 1.23-1.24 (impurity) ([2]; 25° C./60% RH, 18 months): 0.06%
- Specified impurity* (hydrolysis impurity) ([2]; 25° C./60% RH, 18 months): 0.10%
- Total impurities ([2]; 25° C./60% RH, 18 months): 0.20%
- Water content ([2]; 25° C./60% RH, 18 months): 0.49%
- Z-isomer RRT 0.92-0.93 ([2]; 25° C./60% RH, 18 months): <0.05%
- pH ([2]; 25° C./60% RH, 18 months): 1.5
- Any individual purity ([2]; 25° C./60% RH, 24 months): 0.10%
- Assay ([2]; 25° C./60% RH, 24 months): 94.5 % w/w
- RRT 1.13 (impurity) ([2]; 25° C./60% RH, 24 months): <LOQ
- RRT 1.23-1.24 (impurity) ([2]; 25° C./60% RH, 24 months): 0.06%
- RRT 1.47-1.51 (impurity) ([2]; 25° C./60% RH, 24 months): 0.09%
- Specified impurity* (hydrolysis impurity) ([2]; 25° C./60% RH, 24 months): 0.10%
- Total impurities ([2]; 25° C./60% RH, 24 months): 0.36%
- Water content ([2]; 25° C./60% RH, 24 months): 0.45%
- Z-isomer RRT 0.92-0.93 ([2]; 25° C./60% RH, 24 months): 0.05%
- pH ([2]; 25° C./60% RH, 24 months): 1.6
- time the lyophilisate is stable ([2]; room temperature): at least 24 months
- solubility in water ([3]; after lyophilisation versus prior to (A1)): less soluble in water
- solubility on addition of NaCl ([3]; increase in pH generated by NaCl): decreased the solubility
- pH of aqueous solution ([4]; 1 mg/ml): 2-3
- pH of best stability ([4]; aqueous media): 1-4
- time over which formation of by-products is suppressed ([4]; aqueous media, 1 mg/ml): up to 24 hrs
- hydrolysis in aqueous solvents ([4]; aqueous solvents): readily hydrolyses
